Several values for one entry are separate records, joined by “and”; a condition that tells them apart may be missing. Identical values can stand only once. Entries after “also recorded” stand apart in the source; their conditions may differ. Like-named read-outs stand apart in the source and are kept apart here.
Key:
[1] = Preliminary evaluation of pharmacokinetics in Beagle dogs; type: in vivo
[2] = system: MCD-HFD induced NASH model; assay: Pharmacological activity test in MCD-HFD induced NASH model; type: in vivo, C57BL/6 mice
Description: Male C57BL/6 mice were fed with MCD-HFD diet to induce the NASH model, and 4 weeks after modeling, the mice were randomly divided into […]: normal diet control group (Control, n=9), model control group (Model, n=10), positive compound BAF312 group (0.3 mg/kg, n=10), low dose group (0.3 mg/kg, n=10), medium dose group (3 mg/kg, n=10), and high dose group (10 mg/kg, n=10), administered by gavage in a volume of 5 mL/kg once a day. The animals were monitored for food intake and body weight during administration; 4 weeks after administration, the mice were sacrificed by dislocation after blood was taken via the posterior ophthalmic plexus, livers and spleens were weighed, part the liver was fixed in 4% paraformaldehyde, and all tissues and serum were stored at −80° C.

[3] = dog, in vivo, Beagle dogs, intravenous 0.5 mg/kg, mean
[4] = high-dose group (10 mg/kg), gavage once a day, 4 weeks

CC(C)Oc1ccc(-c2nc(-c3ccc(CN4CC(C(=O)O)C4)c4ccccc34)no2)cc1C#N.Cl [Compound A1, 1-((4-(5-(3-cyano-4-isopropoxyphenyl)-1,2,4-oxadiazol-3-yl)naphthalen-1-yl)methyl) azetidine-3-carboxylic acid hydrochloric acid]
concentration at 8 h ([1]; beagle, dog, plasma, iv, 0.5 mg/kg, intravenous 0.5 mg/kg, 8 h, mean, read-out: Plasma drug concentration in Beagle dogs): 0.773 ng/mL
concentration at 0.25 h ([1]; beagle, dog, plasma, oral, 3 mg/kg, intragastric 3 mg/kg, 0.25 h, mean, read-out: Plasma drug concentration in Beagle dogs): 215 ng/mL
concentration at 0.5 h ([1]; beagle, dog, plasma, oral, 3 mg/kg, intragastric 3 mg/kg, 0.5 h, mean, read-out: Plasma drug concentration in Beagle dogs): 262 ng/mL
concentration at 1 h ([1]; beagle, dog, plasma, oral, 3 mg/kg, intragastric 3 mg/kg, 1 h, individual animals 4-6, read-out: Plasma drug concentration in Beagle dogs): 333 ng/mL
concentration at 1 h ([1]; beagle, dog, plasma, oral, 3 mg/kg, intragastric 3 mg/kg, 1 h, mean, read-out: Plasma drug concentration in Beagle dogs): 281 ng/mL
concentration at 2 h ([1]; beagle, dog, plasma, oral, 3 mg/kg, intragastric 3 mg/kg, 2 h, individual animals 4-6, read-out: Plasma drug concentration in Beagle dogs): 365 ng/mL
concentration at 2 h ([1]; beagle, dog, plasma, oral, 3 mg/kg, intragastric 3 mg/kg, 2 h, mean, read-out: Plasma drug concentration in Beagle dogs): 291 ng/mL
concentration at 3 h ([1]; beagle, dog, plasma, oral, 3 mg/kg, intragastric 3 mg/kg, 3 h, individual animals 4-6, read-out: Plasma drug concentration in Beagle dogs): 212 ng/mL
concentration at 3 h ([1]; beagle, dog, plasma, oral, 3 mg/kg, intragastric 3 mg/kg, 3 h, mean, read-out: Plasma drug concentration in Beagle dogs): 208 ng/mL
concentration at 4 h ([1]; beagle, dog, plasma, oral, 3 mg/kg, intragastric 3 mg/kg, 4 h, mean, read-out: Plasma drug concentration in Beagle dogs): 111 ng/mL
concentration at 6 h ([1]; beagle, dog, plasma, oral, 3 mg/kg, intragastric 3 mg/kg, 6 h, mean, read-out: Plasma drug concentration in Beagle dogs): 59.4 ng/mL
concentration at 8 h ([1]; beagle, dog, plasma, oral, 3 mg/kg, intragastric 3 mg/kg, 8 h, mean, read-out: Plasma drug concentration in Beagle dogs): 10.8 ng/mL
Tmax ([1]; beagle, dog, plasma, po, 3 mg/kg, Beagle dogs, 3 mg/kg by gavage, range over animals, read-out: peak time Tmax): 0.25 to 2 h
AUC0-t ([1]; dog, in vivo, po, Beagle dogs, intragastric 3 mg/kg, mean, read-out: AUC0-t): 1160 ng·h/mL
Cmax ([1]; dog, in vivo, po, Beagle dogs, intragastric 3 mg/kg, mean, read-out: Cmax): 366 ng/mL
clearance [1, 3]: 23.3 mL/min/kg
half-life [1, 3]: 59 min
Vd ([1]; dog, in vivo, Beagle dogs, intravenous 0.5 mg/kg, mean, read-out: Vss): 1.28 L/kg
bioavailability ([1]; dog, plasma, oral, Beagle dogs, 3 mg/kg by gavage vs 0.5 mg/kg intravenous, read-out: absolute bioavailability): 54%
Plasma drug concentration in Beagle dogs ([1]; intragastric 3 mg/kg, 0.25 h, individual animals 4-6, listed as DC411151): 539 ng/mL and 93.3 ng/mL and 11.2 ng/mL
Plasma drug concentration in Beagle dogs ([1]; intragastric 3 mg/kg, 0.5 h, individual animals 4-6, listed as DC411151): 444 ng/mL and 153 ng/mL and 188 ng/mL
Plasma drug concentration in Beagle dogs ([1]; intragastric 3 mg/kg, 1 h, individual animals 4-6, listed as DC411151): 193 ng/mL and 318 ng/mL
Plasma drug concentration in Beagle dogs ([1]; intragastric 3 mg/kg, 2 h, individual animals 4-6, listed as DC411151): 242 ng/mL and 266 ng/mL
Plasma drug concentration in Beagle dogs ([1]; intragastric 3 mg/kg, 3 h, individual animals 4-6, listed as DC411151): 143 ng/mL and 269 ng/mL
Plasma drug concentration in Beagle dogs ([1]; intragastric 3 mg/kg, 4 h, individual animals 4-6, listed as DC411151): 151 ng/mL and 62.7 ng/mL and 118 ng/mL
Plasma drug concentration in Beagle dogs ([1]; intragastric 3 mg/kg, 6 h, individual animals 4-6, listed as DC411151): 90.3 ng/mL and 24.0 ng/mL and 64.0 ng/mL
Plasma drug concentration in Beagle dogs ([1]; intragastric 3 mg/kg, 8 h, individual animals 4-6, listed as DC411151): 12.0 ng/mL and 4.87 ng/mL and 15.6 ng/mL
Plasma drug concentration in Beagle dogs ([1]; intragastric 3 mg/kg, 24 h, individual animals 4-6): BQL
Plasma drug concentration in Beagle dogs ([1]; intravenous 0.5 mg/kg, 0.083 h, individual animals 1-3, listed as DC411151, 0.5 mg/kg): 554 ng/mL and 537 ng/mL
Plasma drug concentration in Beagle dogs ([1]; intravenous 0.5 mg/kg, 0.25 h, individual animals 1-3, listed as DC411151, 0.5 mg/kg): 219 ng/mL and 340 ng/mL
Plasma drug concentration in Beagle dogs ([1]; intravenous 0.5 mg/kg, 0.5 h, individual animals 1-3, listed as DC411151, 0.5 mg/kg): 138 ng/mL and 176 ng/mL
Plasma drug concentration in Beagle dogs ([1]; intravenous 0.5 mg/kg, 1 h, individual animals 1-3, listed as DC411151, 0.5 mg/kg): 76.9 ng/mL and 97.1 ng/mL
Plasma drug concentration in Beagle dogs ([1]; intravenous 0.5 mg/kg, 2 h, individual animals 1-3, listed as DC411151, 0.5 mg/kg): 27.8 ng/mL and 35.4 ng/mL
Plasma drug concentration in Beagle dogs ([1]; intravenous 0.5 mg/kg, 3 h, individual animals 1-3, listed as DC411151, 0.5 mg/kg): 12.5 ng/mL and 20.3 ng/mL
Plasma drug concentration in Beagle dogs ([1]; intravenous 0.5 mg/kg, 4 h, individual animals 1-3, listed as DC411151, 0.5 mg/kg): 7.88 ng/mL and 10.6 ng/mL
Plasma drug concentration in Beagle dogs ([1]; intravenous 0.5 mg/kg, 6 h, individual animals 1-3, listed as DC411151, 0.5 mg/kg): 1.64 ng/mL and 2.47 ng/mL
Plasma drug concentration in Beagle dogs ([1]; intravenous 0.5 mg/kg, 8 h, individual animals 1-3, listed as DC411151, 0.5 mg/kg): BQL and 1.05 ng/ml and 0.496 ng/ml
hepatic lipid accumulation as well as inflammatory infiltration ([2]; FIG. 10 legend: at high/medium/low doses): alleviated
hepatic lipid accumulation and inflammatory infiltration ([2]; H&E-stained liver sections, high-dose (10 mg/kg)): effective in alleviating
body weight ([2]; gavage once a day, 4 weeks): without affecting
TG accumulation in the liver ([2]; high-dose group (10 mg/kg)): significantly alleviating
serum ALT levels [2, 4]: significantly reduced
serum AST levels [2, 4]: significantly reduced
expression levels of fibrosis-related genes (Asma, Tgfb, Col1a1) ([2]; high/medium-dose (10/3 mg/kg)): significantly downregulated; also recorded: downregulates
hydroxyproline levels in the liver ([2]; high/medium-dose (10/3 mg/kg), to different degrees): effective in alleviating; also recorded: alleviated
mRNA expression of liver inflammation-related genes (Tnfa, Il1b, Nlrp3, Ccl2) ([2]; high/medium/low doses (10/3/0.3 mg/kg), to different degrees): significantly downregulated

From patent US20240208954A1, “OXADIAZOLE COMPOUND, PREPARATION METHOD THEREFOR, PHARMACEUTICAL COMPOSITION AND USE THEREOF” (SHANGHAI INSTITUTE OF MATERIA MEDICA, CHINESE ACADEMY OF …, priority 2020, published 2024)
